# Data reported in ChEMBL document CHEMBL1201862, “PubChem BioAssay data set” (2004).
# Calls of active or inactive are those of the source.
# Tests used:
# [1] = biological target: T1, Ubiquitin-conjugating enzyme E2 N (Homo sapiens, UniProt P61088); assay type: functional;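 note: Dose-response confirmation in a TR-FRET assay detecting UBC13-driven polyubiquitin chain formation, inhibition measured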
# T1 sequence (P61088 whole entry): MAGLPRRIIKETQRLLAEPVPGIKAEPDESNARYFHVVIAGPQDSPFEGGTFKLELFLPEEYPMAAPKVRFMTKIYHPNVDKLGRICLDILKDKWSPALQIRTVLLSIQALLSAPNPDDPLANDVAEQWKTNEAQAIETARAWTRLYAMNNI
# [2] = biological target: T2, RNA-binding protein pos-1 (Caenorhabditis elegans, UniProt G5EF15); assay: disruptors of C. elegans POS-1 RNA interaction – biochemical, fluorescence polarization, dose response (AID 1964);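 note: purified POS-1 fused to maltose binding protein made in E. coli; potency of compounds blocking POS-1 binding to fluorescent RNA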
# T2 sequence (G5EF15 whole entry): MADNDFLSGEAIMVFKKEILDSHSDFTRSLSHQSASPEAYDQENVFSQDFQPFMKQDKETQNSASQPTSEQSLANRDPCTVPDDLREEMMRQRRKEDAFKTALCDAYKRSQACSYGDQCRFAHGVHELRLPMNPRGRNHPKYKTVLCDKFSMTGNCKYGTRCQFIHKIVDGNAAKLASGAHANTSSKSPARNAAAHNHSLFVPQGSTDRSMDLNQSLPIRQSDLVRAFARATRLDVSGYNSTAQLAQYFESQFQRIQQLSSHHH
# [3] = biological target: T3, Zinc finger protein mex-5 (Caenorhabditis elegans, UniProt Q9XUB2); assay: potency of MEX-5 RNA-binding blockers – biochemical, C. elegans, fluorescence polarization, dose response (AID 1960)
# T3 sequence (Q9XUB2 whole entry): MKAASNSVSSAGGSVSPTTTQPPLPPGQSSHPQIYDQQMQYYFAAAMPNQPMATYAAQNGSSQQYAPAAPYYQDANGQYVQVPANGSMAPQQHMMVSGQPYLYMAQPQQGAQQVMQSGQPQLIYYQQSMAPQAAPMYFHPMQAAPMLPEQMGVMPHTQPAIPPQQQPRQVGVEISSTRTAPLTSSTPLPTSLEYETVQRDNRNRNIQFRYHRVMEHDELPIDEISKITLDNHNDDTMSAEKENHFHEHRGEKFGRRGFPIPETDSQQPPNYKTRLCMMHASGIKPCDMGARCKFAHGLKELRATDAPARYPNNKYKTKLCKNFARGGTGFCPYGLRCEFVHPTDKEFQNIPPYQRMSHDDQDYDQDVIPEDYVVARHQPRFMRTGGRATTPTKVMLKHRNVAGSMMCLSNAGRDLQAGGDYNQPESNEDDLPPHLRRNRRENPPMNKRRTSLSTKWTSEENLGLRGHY
# [4] = P. falciparum Dd2 growth inhibitors, dose response, SYBR Green, cherry-picked samples (AID 1159567); assay type: functional, cell-based
# [5] = reduction of Shn3 3'UTR-driven luciferase in osteoblasts – cell-based, Clone20 osteoblasts, firefly luciferase, cherry-picked, dose response (AID 624132); assay type: functional;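 note: firefly luciferase luminescence from reporter carrying the Shn3 3'UTR in osteoblasts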
# [6] = non-specific 3'UTR reporter inhibition in Clone20-Shn3RL – cell-based, Renilla luciferase, cherry-picked, counter-screen for Shn3 inhibitor project, dose response (AID 624133); assay type: functional
# [7] = loss of viability in HepG2 cells – cell-based, CellTiter-Glo, cherry-picked, cytotoxicity control for Shn3 inhibitor project, dose response (AID 624134); assay type: functional
# [8] = microbe, parasite or virus in culture; assay type: functional; conditions: Mycobacterium tuberculosis
# [9] = viability of PTEN-deleted HCT116 cells – cell-based, HCT116 PTEN knockout, dose response (AID 1047); assay type: functional;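 note: HCT116 colon tumor cells with PTEN knocked out; cells exposed to compound for 60 hours before readout; potency for loss of cell viability measured by luminescence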
# [10] = viability of HCT116 lacking mutant beta-catenin – cell-based, human colon tumor, dose response (AID 1045); assay type: functional;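 note: HCT116 colon tumor cells with beta catenin knocked out; cells exposed to compound for 60 hours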
# Nonstructural protein 1 = Nonstructural protein 1 (Influenza A virus, UniProt Q194T2); assay type: functional, Influenza A virus (A/California/07/2009(H1N1))
# Protein RecA = biological target: T4, Protein RecA (Mycobacterium tuberculosis, UniProt P9WHJ3); assay: Fluorescence Cell-Free Homogeneous Dose Retest to Identify Inhibitors of RecA-Intein Splicing Activity. [Related pubchem assays (depositor defined):AID2097, AID2223, AID489010, AID492950]; assay type: functional
# T4 sequence (P9WHJ3 whole entry): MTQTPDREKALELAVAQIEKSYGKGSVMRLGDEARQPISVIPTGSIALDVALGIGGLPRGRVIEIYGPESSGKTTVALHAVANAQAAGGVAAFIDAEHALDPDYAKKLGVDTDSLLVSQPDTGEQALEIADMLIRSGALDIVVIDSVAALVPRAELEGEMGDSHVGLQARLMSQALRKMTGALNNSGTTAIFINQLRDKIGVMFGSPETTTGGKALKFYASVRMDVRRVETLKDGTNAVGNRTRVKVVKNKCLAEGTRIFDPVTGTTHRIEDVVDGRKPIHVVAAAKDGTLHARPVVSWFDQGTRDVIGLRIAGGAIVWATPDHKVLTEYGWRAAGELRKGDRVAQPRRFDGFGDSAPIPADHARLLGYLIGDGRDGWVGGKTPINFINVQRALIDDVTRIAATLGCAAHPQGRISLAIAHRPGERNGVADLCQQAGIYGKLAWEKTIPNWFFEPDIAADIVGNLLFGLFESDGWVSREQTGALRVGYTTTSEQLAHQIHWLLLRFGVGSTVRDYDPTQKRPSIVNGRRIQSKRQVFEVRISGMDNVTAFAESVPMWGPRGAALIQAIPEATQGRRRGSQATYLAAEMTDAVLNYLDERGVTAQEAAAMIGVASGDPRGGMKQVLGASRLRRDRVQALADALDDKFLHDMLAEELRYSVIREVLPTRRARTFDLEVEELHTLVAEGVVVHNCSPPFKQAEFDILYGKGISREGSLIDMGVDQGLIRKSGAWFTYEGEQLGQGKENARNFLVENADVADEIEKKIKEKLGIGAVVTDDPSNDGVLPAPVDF
# [11] = biological target: T5, Replicative DNA helicase DnaB (Mycobacterium tuberculosis, UniProt P9WMR3); assay: DnaB intein splicing inhibitors, dose response, biochemical, cell-free fluorescence (AID 449749); assay type: functional
# T5 sequence (P9WMR3 whole entry): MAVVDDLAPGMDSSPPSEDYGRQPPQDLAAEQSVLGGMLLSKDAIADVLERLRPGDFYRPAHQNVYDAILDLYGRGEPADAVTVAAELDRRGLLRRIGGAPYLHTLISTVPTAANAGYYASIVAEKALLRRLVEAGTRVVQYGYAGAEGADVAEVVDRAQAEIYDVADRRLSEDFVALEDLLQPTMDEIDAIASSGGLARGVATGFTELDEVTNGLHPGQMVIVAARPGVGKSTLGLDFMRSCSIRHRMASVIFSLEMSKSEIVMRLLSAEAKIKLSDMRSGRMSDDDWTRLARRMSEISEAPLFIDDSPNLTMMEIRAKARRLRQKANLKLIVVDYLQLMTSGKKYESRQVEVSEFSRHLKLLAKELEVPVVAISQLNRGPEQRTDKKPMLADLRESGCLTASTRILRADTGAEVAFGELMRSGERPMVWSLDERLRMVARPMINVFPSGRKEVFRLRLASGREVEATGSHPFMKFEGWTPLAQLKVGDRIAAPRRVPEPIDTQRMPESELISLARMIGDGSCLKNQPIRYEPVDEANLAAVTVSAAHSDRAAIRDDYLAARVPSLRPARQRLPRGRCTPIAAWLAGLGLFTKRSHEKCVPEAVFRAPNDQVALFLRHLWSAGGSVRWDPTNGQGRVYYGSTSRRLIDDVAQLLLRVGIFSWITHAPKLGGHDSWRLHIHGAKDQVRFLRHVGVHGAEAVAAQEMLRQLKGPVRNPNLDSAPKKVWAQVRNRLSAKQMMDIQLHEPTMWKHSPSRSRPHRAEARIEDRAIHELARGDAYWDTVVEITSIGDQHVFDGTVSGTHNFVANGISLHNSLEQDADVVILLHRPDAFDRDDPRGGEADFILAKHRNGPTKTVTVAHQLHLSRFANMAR
# INS1 = assay: INS-1E survival protection against cytokine death – cell-based, luminescence, retest, dose response (AID 449756); assay type: functional; conditions: Rattus norvegicus;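 note: cell death triggered by IL-1 beta plus TNF-alpha plus IFN-gamma mixture; protective hits raise ATP signal compared with cytokine alone wells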
# [12] = Luminescence Cell-Based Dose Retest to Confirm Inhibitors of Cancer Stem Cells. [Related pubchem assays (depositor defined):AID2717, AID2721]; assay type: functional; conditions: Homo sapiens
# [13] = intracellular Trypanosoma cruzi inhibitors in host cells – cell-based, plate reader, cherry-pick samples, set 3, dose response (AID 651818); assay type: functional;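 note: compounds incubated with infected cells for about four days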
# Paired box protein Pax-8 = Paired box protein Pax-8 (Homo sapiens, UniProt Q06710); assay: PAX8 transcriptional activity inhibition in RMG-I – RMG-I cells, luciferase, cherry-pick, dose response (AID 687027); assay type: functional, cell-based;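 note: luciferase reporter driven by Pax8 target thyroperoxidase promoter measured by SteadyGlo luminescence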
# Sequence of Paired box protein Pax-8 (Q06710 whole entry): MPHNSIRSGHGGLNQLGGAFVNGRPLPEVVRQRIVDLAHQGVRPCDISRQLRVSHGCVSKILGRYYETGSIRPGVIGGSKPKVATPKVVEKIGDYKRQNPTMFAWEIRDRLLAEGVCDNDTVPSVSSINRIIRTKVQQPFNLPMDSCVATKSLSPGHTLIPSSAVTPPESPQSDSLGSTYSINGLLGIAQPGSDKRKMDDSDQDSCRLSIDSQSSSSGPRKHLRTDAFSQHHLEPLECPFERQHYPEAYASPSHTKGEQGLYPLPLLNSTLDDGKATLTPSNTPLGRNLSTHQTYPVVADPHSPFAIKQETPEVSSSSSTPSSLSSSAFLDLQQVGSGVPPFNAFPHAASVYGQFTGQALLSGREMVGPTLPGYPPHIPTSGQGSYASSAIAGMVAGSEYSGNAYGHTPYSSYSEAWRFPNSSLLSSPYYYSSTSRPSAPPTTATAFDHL
# Sequence of Nonstructural protein 1 (Q194T2 whole entry): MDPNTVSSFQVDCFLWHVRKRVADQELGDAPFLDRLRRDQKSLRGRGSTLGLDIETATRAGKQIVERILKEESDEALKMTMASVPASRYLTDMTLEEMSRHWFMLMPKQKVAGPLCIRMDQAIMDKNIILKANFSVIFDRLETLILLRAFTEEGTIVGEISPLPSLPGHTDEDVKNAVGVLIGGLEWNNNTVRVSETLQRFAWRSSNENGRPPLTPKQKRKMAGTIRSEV
compound,measurement,setting,value
Oc1ccc(C[C@@H]2CNCCN2CCCCC2CCCCC2)cc1,IC50,[1],> 20 µM (inactive)
O=C(C1=C[C@@H](c2coc3ccccc3c2=O)C[C@@H](OCc2ccc(CO)cc2)O1)N1CCN(Cc2ccc3c(c2)OCO3)CC1,IC50,[1],> 20 µM (inactive)
CCOC(=O)N1CCN(C2=Nc3cccc4cccc2c34)CC1,EC50,[2],> 300 µM (not active)
same,EC50,[3],60.2 µM (active)
C[C@@H]1CN([C@@H](C)CO)C(=O)c2c(c3ccccc3n2C)-c2ccccc2CO[C@H]1CN(C)S(=O)(=O)c1ccc(C(F)(F)F)cc1,AC50,[4],3.02 µM (active)
Cc1ccccc1S(=O)(=O)N1[C@H](CO)[C@@H](c2ccc(C#CC3CCCCC3)cc2)[C@@H]1C#N,AC50,[4],4.12 µM (active)
CCCNC(=O)N1CC2(CCN(C(=O)CN(C)C)CC2)c2c(n(C)c3cc(OC)ccc23)[C@H]1CO,AC50,[4],4.6 µM (active)
NC1=NC[C@H](c2ccccc2)N1CCCCC1CCCCC1,AC50,[5],4.23 µM (active)
same,IC50,[1],> 20 µM (inactive)
same,AC50,[6],3.11 µM (active)
same,AC50,[7],43.1 µM (active)
COc1ccc(CN2C[C@@H](C)[C@H](OC)CN(C)C(=O)c3cc(NC(=O)c4nc5ccccc5s4)ccc3OC[C@H]2C)cc1,AC50,[4],4.08 µM (active)
COc1ccc(C2Oc3ccccc3C3=C2C(c2cccs2)n2ncnc2N3)cc1 (stereo unspecified),CC50,[8],16.8 µM (active)
same,EC50,[9],8.88 µM (active)
same,EC50,[10],7.97 µM (active)
CCCCCc1cc(=O)oc2c(C(CCN3CCCC3)c3ccc(N(C)C)cc3)c(OC)cc(OC)c12 (stereo unspecified),IC50,Nonstructural protein 1,6.41 µM (active)
N=c1c2c(-c3ccccc3)c(-c3ccccc3)n(Cc3ccco3)c2ncn1Cc1ccccc1,EC50,[9],1.68 µM (active)
same,EC50,Protein RecA,6.7 µM (active)
same,AC50,[11],3.08 µM (active)
same,EC50,[10],1.35 µM (active)
same,AC50,INS1,6.08 µM (active)
COC(=O)[C@@]12CCCCN1[C@H](c1ccc(-c3cc(C(C)=O)cs3)c(OC)c1)[C@H]1C(=O)N(C)C(=O)[C@H]12,IC50,[1],> 20 µM (inactive)
OC[C@@H]1Nc2ccc(C#Cc3cccc(F)c3)cc2[C@@H]2NCC[C@H]12,AC50,[4],2.83 µM (active)
COc1ccc(Cc2nnc(N/N=C/c3ccccc3O)nc2O)cc1OC,AC50,[12],3.66 µM (active)
same,IC50,Nonstructural protein 1,1.42 µM (active)
same,AC50,INS1,0.834 µM (active)
N#C[C@H]1[C@@H](c2ccc(C#CC3CC3)cc2)[C@H](CO)N1S(=O)(=O)c1ccccc1,AC50,[4],4.18 µM (active)
COc1ccc(C2C(C#N)=C(N)OC3=C2C(=O)CC(C)(C)C3)cc1 (stereo unspecified),EC50,[2],69.7 µM (active)
same,EC50,[3],> 300 µM (not active)
CC1=C/C(=N\Nc2ccccc2[N+](=O)[O-])CC(C)(C)C1,IC50,Nonstructural protein 1,14.9 µM (active)
C[C@@H]1CCCCO[C@@H](CN(C)Cc2ccccc2)[C@@H](C)CN([C@H](C)CO)C(=O)c2cc(NC(=O)Nc3ccc(C(F)(F)F)cc3)ccc2O1,AC50,[13],1.64 µM (active)
same,AC50,Paired box protein Pax-8,10.1 µM (active)
CC(C)C[C@@H]1CN=C(N)N1C[C@@H]1CCCN1C[C@@H](C(C)C)N1C[C@@H](Cc2ccccc2)N(CCCC2CCCC2)C1=N,IC50,[1],> 20 µM (inactive)
Cc1ccc(/C=C/C(=O)c2ccccc2)cc1,EC50,[9],22.6 µM (active)
same,EC50,[10],20.1 µM (active)
Cc1ccc(C)n1-c1ccc(C(=O)O)cc1,EC50,[2],13.9 µM (active)
same,EC50,[3],20.5 µM (inconclusive)
O=C(/C=C/c1ccc(-c2ccccc2[N+](=O)[O-])o1)c1ccc(F)cc1,EC50,[9],28.8 µM (active)
same,EC50,[10],35.7 µM (active)
COc1ccc(/C=C2\SC(=S)N(CCCC(=O)NC3CCCC3)C2=O)cc1OC,EC50,[2],57.5 µM (active)
same,EC50,[3],55.7 µM (inconclusive)
O=C(CCCCCCC(=O)Nc1ccccc1O)N/N=C/c1ccc(OCc2ccccc2)cc1O,AC50,[13],1.16 µM (active)
O=C(Oc1ccccc1/C=C\C(=O)c1cc2ccccc2o1)c1cccc(F)c1,EC50,[9],8.35 µM (active)
same,EC50,[10],8.35 µM (active)
COc1ccc(OC)c(N2C(=O)NC(=O)/C(=C\c3c[nH]c4ccccc34)C2=O)c1,EC50,[2],> 300 µM (not active)
same,EC50,[3],> 300 µM (not active)
